# Test results: ChEMBL document CHEMBL3885861, “Open TG-GATES”
# Species: Rattus norvegicus
# Test: Open TG-GATES - Regimen: Single
# Format: toxicity, organism-based, Sprague-Dawley
# Design: regimen Single, gender Male, age 6 weeks
# Details: in vivo, po, 15 mg/kg, route gavage, dose level Low; for APTT / Bas / Eos / Fbg / Hb / Ht / Lym / MCH / MCHC / MCV / Mono / Neu / PT / Plat / RBC / Ret / WBC: tissue Blood; for KIDNEY_L / KIDNEY_R / KIDNEY_TOTAL: tissue Kidney; for LIVER: tissue Liver; for A/G / ALP / ALT / AST / BUN / CRE / Ca / Cl / DBIL / GLC / IP / K / LDH / Na / PL / RALB / TBIL / TC / TG / TP / gamma-GTP: tissue Plasma
smiles,measurement,setting,value
S=C=Nc1cccc2ccccc12 [1-NAPHTHYLISOTHIOCYANATE],TERMINAL_BW,3 h,226 g
same,APTT,3 h,18.2 s
same,Bas,3 h,0.2%
same,Eos,3 h,0.8%
same,Fbg,3 h,233 mg/dL
same,Hb,3 h,13.7 g/dL
same,Ht,3 h,38.1%
same,Lym,3 h,75.2%
same,MCH,3 h,22 pg
same,MCHC,3 h,35.8%
same,MCV,3 h,61.5 fL
same,Mono,3 h,3%
same,Neu,3 h,20%
same,PT,3 h,11.7 s
same,Plat,3 h,119.1 x10_4/uL
same,RBC,3 h,622.2 x10_4/ul
same,Ret,3 h,8.4%
same,WBC,3 h,91.8 x10_2/uL
same,KIDNEY_L,3 h,1 g
same,KIDNEY_R,3 h,1 g
same,KIDNEY_TOTAL,3 h,2 g
same,LIVER,3 h,10.2 g
same,A/G,3 h,1.6
same,ALP,3 h,1037.2 IU/L
same,ALT,3 h,42.2 IU/L
same,AST,3 h,75 IU/L
same,BUN,3 h,10.6 mg/dL
same,CRE,3 h,0.4 mg/dL
same,Ca,3 h,10.8 mg/dL
same,Cl,3 h,103.8 meq/L
same,DBIL,3 h,0.1 mg/dL
same,GLC,3 h,220.4 mg/dL
same,IP,3 h,10 mg/dL
same,K,3 h,4.1 meq/L
same,LDH,3 h,199.8 IU/L
same,Na,3 h,142 meq/L
same,PL,3 h,159.4 mg/dL
same,RALB,3 h,3.4 g/dL
same,TBIL,3 h,0.1 mg/dL
same,TC,3 h,75.2 mg/dL
same,TG,3 h,135.2 mg/dL
same,TP,3 h,5.6 g/dL
same,gamma-GTP,3 h,0.8 IU/L
same,TERMINAL_BW,6 h,220 g
same,APTT,6 h,18.5 s
same,Bas,6 h,0%
same,Eos,6 h,0.8%
same,Fbg,6 h,243.4 mg/dL
same,Hb,6 h,13.8 g/dL
same,Ht,6 h,38.6%
same,Lym,6 h,75.2%
same,MCH,6 h,21.8 pg
same,MCHC,6 h,35.7%
same,MCV,6 h,60.9 fL
same,Mono,6 h,3.2%
same,Neu,6 h,19.8%
same,PT,6 h,11.8 s
same,Plat,6 h,120.7 x10_4/uL
same,RBC,6 h,634.6 x10_4/ul
same,Ret,6 h,7%
same,WBC,6 h,100.7 x10_2/uL
same,KIDNEY_L,6 h,1 g
same,KIDNEY_R,6 h,1 g
same,KIDNEY_TOTAL,6 h,1.9 g
same,LIVER,6 h,9.6 g
same,A/G,6 h,1.7
same,ALP,6 h,1074.4 IU/L
same,ALT,6 h,32.4 IU/L
same,AST,6 h,68.2 IU/L
same,BUN,6 h,8 mg/dL
same,CRE,6 h,0.4 mg/dL
same,Ca,6 h,10.5 mg/dL
same,Cl,6 h,103.8 meq/L
same,DBIL,6 h,0.1 mg/dL
same,GLC,6 h,235.8 mg/dL
same,IP,6 h,10 mg/dL
same,K,6 h,4.1 meq/L
same,LDH,6 h,196 IU/L
same,Na,6 h,141.6 meq/L
same,PL,6 h,140.2 mg/dL
same,RALB,6 h,3.5 g/dL
same,TBIL,6 h,0.1 mg/dL
same,TC,6 h,77 mg/dL
same,TG,6 h,61 mg/dL
same,TP,6 h,5.6 g/dL
same,gamma-GTP,6 h,1.2 IU/L
same,TERMINAL_BW,9 h,215.5 g
same,APTT,9 h,18 s
same,Bas,9 h,0.2%
same,Eos,9 h,0.8%
same,Fbg,9 h,237 mg/dL
same,Hb,9 h,13.6 g/dL
same,Ht,9 h,38.1%
same,Lym,9 h,74.8%
same,MCH,9 h,21.5 pg
same,MCHC,9 h,35.6%
same,MCV,9 h,60.5 fL
same,Mono,9 h,2.4%
same,Neu,9 h,20.8%
same,PT,9 h,12.1 s
same,Plat,9 h,122.9 x10_4/uL
same,RBC,9 h,631.6 x10_4/ul
same,Ret,9 h,7.1%
same,WBC,9 h,92.1 x10_2/uL
same,KIDNEY_L,9 h,1 g
same,KIDNEY_R,9 h,0.9 g
same,KIDNEY_TOTAL,9 h,1.9 g
same,LIVER,9 h,8.7 g
same,A/G,9 h,1.7
same,ALP,9 h,1018.2 IU/L
same,ALT,9 h,35.8 IU/L
same,AST,9 h,72 IU/L
same,BUN,9 h,10.4 mg/dL
same,CRE,9 h,0.4 mg/dL
same,Ca,9 h,10.4 mg/dL
same,Cl,9 h,104 meq/L
same,DBIL,9 h,0.092 mg/dL
same,GLC,9 h,223 mg/dL
same,IP,9 h,10.1 mg/dL
same,K,9 h,3.8 meq/L
same,LDH,9 h,157.4 IU/L
same,Na,9 h,142.2 meq/L
same,PL,9 h,134.2 mg/dL
same,RALB,9 h,3.6 g/dL
same,TBIL,9 h,0.1 mg/dL
same,TC,9 h,73.2 mg/dL
same,TG,9 h,34.8 mg/dL
same,TP,9 h,5.7 g/dL
same,gamma-GTP,9 h,1 IU/L
same,TERMINAL_BW,24 h,232.5 g
same,APTT,24 h,17.6 s
same,Bas,24 h,0.4%
same,Eos,24 h,0.8%
same,Fbg,24 h,217.8 mg/dL
same,Hb,24 h,13.9 g/dL
same,Ht,24 h,38.5%
same,Lym,24 h,80%
same,MCH,24 h,21.9 pg
same,MCHC,24 h,36%
same,MCV,24 h,60.8 fL
same,Mono,24 h,2%
same,Neu,24 h,16%
same,PT,24 h,11.9 s
same,Plat,24 h,122.9 x10_4/uL
same,RBC,24 h,633.6 x10_4/ul
same,Ret,24 h,6.5%
same,WBC,24 h,106 x10_2/uL
same,KIDNEY_L,24 h,1 g
same,KIDNEY_R,24 h,1 g
same,KIDNEY_TOTAL,24 h,2 g
same,LIVER,24 h,10.3 g
same,A/G,24 h,1.6
same,ALP,24 h,1064.4 IU/L
same,ALT,24 h,39.8 IU/L
same,AST,24 h,73.6 IU/L
same,BUN,24 h,15.6 mg/dL
same,CRE,24 h,0.4 mg/dL
same,Ca,24 h,10.6 mg/dL
same,Cl,24 h,103.8 meq/L
same,DBIL,24 h,0.068 mg/dL
same,GLC,24 h,198 mg/dL
same,IP,24 h,7.3 mg/dL
same,K,24 h,3.8 meq/L
same,LDH,24 h,209.4 IU/L
same,Na,24 h,141.6 meq/L
same,PL,24 h,131 mg/dL
same,RALB,24 h,3.4 g/dL
same,TBIL,24 h,0.1 mg/dL
same,TC,24 h,67.4 mg/dL
same,TG,24 h,84.2 mg/dL
same,TP,24 h,5.5 g/dL
same,gamma-GTP,24 h,1.6 IU/L
